Reference: US7261876B2, “Multivalent constructs for therapeutic and diagnostic applications” (Bracco International BV, priority 2002, dated 2007)
Where two headings read alike, the source gives them in different places. Positions of bridges follow the written chain, without caps; N, C: chain ends. Non-standard residues stand in square brackets, D forms with d. Residues, ends and D or L forms follow the SMILES beside them. Lys(ivDde) = CC(C)CC(NCCCC[C@H](N)C(=O)O)=C1C(=O)CC(C)(C)CC1=O

Molecular target: T1, KDR (Homo sapiens, UniProt P35968)
T1 construct: host or cells: HUVEC
T1 sequence (P35968 20-1356): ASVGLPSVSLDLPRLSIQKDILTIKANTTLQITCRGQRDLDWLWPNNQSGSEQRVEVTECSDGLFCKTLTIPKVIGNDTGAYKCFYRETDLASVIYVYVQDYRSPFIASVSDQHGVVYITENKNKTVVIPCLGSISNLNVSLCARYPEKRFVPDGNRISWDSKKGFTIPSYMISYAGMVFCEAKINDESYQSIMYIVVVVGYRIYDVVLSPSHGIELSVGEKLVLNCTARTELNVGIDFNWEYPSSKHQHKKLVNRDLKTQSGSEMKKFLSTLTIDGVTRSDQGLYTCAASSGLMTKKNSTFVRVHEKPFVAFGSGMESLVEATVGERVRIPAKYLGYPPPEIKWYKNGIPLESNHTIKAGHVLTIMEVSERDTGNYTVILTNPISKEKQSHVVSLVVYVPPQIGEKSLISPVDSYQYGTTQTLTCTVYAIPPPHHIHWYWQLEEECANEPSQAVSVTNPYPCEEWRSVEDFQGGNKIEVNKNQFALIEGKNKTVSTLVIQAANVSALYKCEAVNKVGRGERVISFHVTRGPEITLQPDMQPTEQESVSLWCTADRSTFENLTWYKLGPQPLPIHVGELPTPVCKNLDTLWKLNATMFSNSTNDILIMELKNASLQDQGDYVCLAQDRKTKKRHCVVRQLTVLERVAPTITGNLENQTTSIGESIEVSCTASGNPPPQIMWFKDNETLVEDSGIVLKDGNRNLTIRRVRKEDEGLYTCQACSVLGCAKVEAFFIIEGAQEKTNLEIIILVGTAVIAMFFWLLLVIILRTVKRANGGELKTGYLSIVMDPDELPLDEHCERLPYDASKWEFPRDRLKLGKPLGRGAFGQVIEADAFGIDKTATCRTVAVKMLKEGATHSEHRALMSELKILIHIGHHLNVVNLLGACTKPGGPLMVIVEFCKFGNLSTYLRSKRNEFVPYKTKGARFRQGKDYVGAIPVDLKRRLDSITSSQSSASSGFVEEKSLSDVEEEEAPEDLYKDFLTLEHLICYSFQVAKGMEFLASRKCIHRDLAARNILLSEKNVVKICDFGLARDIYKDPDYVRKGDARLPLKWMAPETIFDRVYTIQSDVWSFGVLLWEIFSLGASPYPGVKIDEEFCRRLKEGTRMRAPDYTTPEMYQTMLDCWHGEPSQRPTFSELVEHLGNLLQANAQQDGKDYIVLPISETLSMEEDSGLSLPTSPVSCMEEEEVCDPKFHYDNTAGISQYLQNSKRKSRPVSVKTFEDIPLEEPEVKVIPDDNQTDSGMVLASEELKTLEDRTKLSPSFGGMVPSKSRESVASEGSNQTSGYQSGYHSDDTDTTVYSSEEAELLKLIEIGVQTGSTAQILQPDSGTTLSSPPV
Experiment: VEGF-induced KDR receptor activation (phosphorylation) assay in HUVECs
Type: cell-based
Details: for inhibition at 10 µM: HUVEC, read-out: inhibition of VEGF-induced KDR phosphorylation
Excerpt: Human umbilical vein endothelial cells (HUVECs) (Biowhittaker Cat No. CC-2519) were obtained frozen on dry ice and stored in liquid nitrogen until thawing. These cells were thawed, passaged, and maintained as described by the manufacturer in EGM-MV medium (Biowhittaker Cat No. CC-3125). Cells seeded into 100 mm dishes were allowed to become confluent, then cultured overnight in basal EBM medium lacking serum (Biowhittaker Cat No. CC-3121). The next morning, the medium in the dishes was replaced with 10 mL fresh EBM medium at 37° C. containing either no additive (negative control), 5 ng/mL VEGF (Calbiochem Cat No. 676472 or Peprotech Cat No. 100-20) (positive control), or 5 ng/mL VEGF plus the indicated concentration of the KDR-binding peptide (prepared as described above). In some cases, a neutralizing anti-KDR antibody (Cat No. AF357, R&D Systems) was used as a positive control inhibitor of activation. In such cases, the antibody was pre-incubated with the test cells for 30 min at 37° C. prior to the addition of fresh medium containing both VEGF and the antibody. After incubating the dishes 5 min in a 37° C. tissue culture incubator they were washed three times with ice-cold Dulbecco's phosphate buffered saline (D-PBS) containing calcium and magnesium and placed on ice without removing the last 10 mL of D-PBS. The first dish of a set was drained and 0.5 mL of Triton lysis buffer was added (20 mM Tris base pH 8.0, 137 mM NaCl, 10% glycerol, 1% Triton X-100, 2 mM EDTA (ethylenediaminetetraacetic acid), 1 mM PMSF (phenylmethylsulfonylfluoride), 1 mM sodium orthovanadate, 100 mM NaF, 50 mM sodium pyrophosphate, 10 μg/mL leupeptin, 10 μg/mL aprotinin). The cells were quickly scraped into the lysis buffer using a cell scraper (Falcon, Cat No. 353087), dispersed by pipeting up and down briefly, and the resulting lysate was transferred to the second drained dish of the pair. Another 0.5 mL of lysis buffer was used to rinse out the first dish then transferred to the second dish, which was then also scraped and dispersed. The pooled lysate from the two dishes was transferred to a 1.5 mL Eppindorf tube. The above procedure was repeated for each of the controls and test samples (KDR-binding peptides), one at a time. The lysates were stored on ice until all the samples had been processed. At this point samples were either stored at −70° C. or processed to the end of the assay without interruption.
The lysates, either freshly prepared or frozen and thawed, were precleared by adding 20 μL of protein A-sepharose beads (Sigma 3391, preswollen in D-PBS), washed three times with a large excess of D-PBS, reconstituted with 6 mL D-PBS to generate a 50% slurry) and rocked at 4° C. for 30 min. The beads were pelleted by centrifugation for 2 min in a Picofuge (Stratgene, Cat No. 400550) at 2000×g and the supernatants transferred to new 1.5 mL tubes. 20 μg of anti-Flk-1 antibody (Santa Cruz Biotechnology, Cat No. sc-504) was added to each tube, and the tubes were incubated overnight (16–18 h) at 4° C. on a rotator to immunoprecipitate KDR. The next day 40 μL of protein A-sepharose beads were added to the tubes, which were then incubated at 4° C. for 1 h on a rotator. The beads in each tube were subsequently washed three times by centrifuging for 2 min in a Picofuge, discarding the supernatant, and dispersing the beads in 1 mL freshly added TBST buffer (20 mM Tris base pH 7.5, 137 mM NaCl, and 0.1% Tween 20). After centrifuging and removing the liquid from the last wash, 40 μL of Laemmli SDS-PAGE sample buffer (Bio-Rad, Cat No. 161-0737) was added to each tube and the tubes were capped and boiled for 5 min. After cooling, the beads in each tube were pelleted by centrifuging and the supernatants containing the immunoprecipitated KDR were transferred to new tubes and used immediately or frozen and stored at −70° C. for later analysis.
Detection of phosphorylated KDR as well as total KDR in the immunoprecipitates was carried out by immunoblot analysis. […]

SMILES	inhibition of KDR activation (10 μM)	other results
CC[C@H](C)[C@@H]1NC(=O)CNC(=O)[C@H](CC(=O)O)NC(=O)[C@@H]2CCCN2C(=O)[C@H](Cc2c[nH]cn2)NC(=O)[C@H](Cc2ccc(O)cc2)NC(=O)[C@@H](NC(=O)[C@H](CCC(=O)O)NC(=O)[C@@H](NC(=O)[C@H](Cc2c[nH]c3ccccc23)NC(=O)CNC(=O)[C@H](C)NC(C)=O)[C@@H](C)CC)CSSC[C@@H](C(=O)N[C@@H](Cc2ccc(O)cc2)C(=O)N[C@@H](Cc2c[nH]cn2)C(=O)N[C@@H](Cc2ccccc2)C(=O)NCC(=O)N[C@H](C(=O)NCC(=O)NCC(=O)NCC(=O)N[C@@H](CCCCN)C(N)=O)[C@@H](C)O)NC1=O [P2-D] (Ac-AGWIECYHPDGICYHFGTGGGK-NH2; disulfide 6-13)	–	inhibition at 10 µM: ≥ 50%
CC(=O)N[C@@H](C)C(=O)NCC(=O)N[C@@H](Cc1c[nH]c2ccccc12)C(=O)N[C@@H](CC(C)C)C(=O)N[C@@H](CCC(=O)O)C(=O)N[C@H]1CSSC[C@@H](C(=O)N[C@@H](Cc2ccc(O)cc2)C(=O)N[C@@H](CC(N)=O)C(=O)N[C@@H](Cc2ccccc2)C(=O)NCC(=O)N[C@H](C(=O)NCC(=O)NCC(=O)NCC(=O)N[C@@H](CCCCN)C(N)=O)[C@@H](C)O)NC(=O)[C@H](Cc2c[nH]cn2)NC(=O)CNC(=O)[C@H](Cc2ccccc2)NC(=O)[C@H](CCC(=O)O)NC(=O)[C@H](C)NC(=O)[C@H](Cc2ccc(O)cc2)NC1=O [P3-D] (Ac-AGWLECYAEFGHCYNFGTGGGK-NH2; disulfide 6-13)	–	inhibition at 10 µM (10 μM): ≥ 50%
CSCC[C@@H]1NC(=O)[C@H]([C@@H](C)O)NC(=O)[C@@H](NC(=O)[C@@H](NC(=O)[C@H](CC(=O)O)NC(=O)[C@@H]2CCCN2C(=O)[C@H](CC(=O)O)NC(=O)CNC(C)=O)[C@@H](C)O)CSSC[C@@H](C(=O)N[C@@H](Cc2ccccc2)C(=O)N2CCC[C@H]2C(=O)N[C@@H](C)C(=O)N[C@@H](CC(=O)O)C(=O)N2CCC[C@H]2C(=O)NCC(=O)NCC(=O)NCC(=O)N[C@@H](CCCCN)C(N)=O)NC(=O)[C@H](Cc2ccc(O)cc2)NC(=O)[C@H](Cc2c[nH]c3ccccc23)NC(=O)[C@H](CCCNC(=N)N)NC(=O)CNC(=O)[C@H](CO)NC(=O)[C@H](CC(=O)O)NC(=O)CNC(=O)[C@H](Cc2c[nH]c3ccccc23)NC1=O [P8-D] (Ac-GDPDTCTMWGDSGRWYCFPADPGGGK-NH2; disulfide 6-17)	–	inhibition at 10 µM: ≥ 50%
CC[C@H](C)[C@@H]1NC(=O)[C@H](Cc2c[nH]c3ccccc23)NC(=O)[C@H](CCC(N)=O)NC(=O)CNC(=O)[C@H](CC(N)=O)NC(=O)[C@H](Cc2c[nH]cn2)NC(=O)[C@H](CC(C)C)NC(=O)[C@H](Cc2ccc(O)cc2)NC(=O)[C@@H](NC(=O)[C@H](Cc2c[nH]cn2)NC(=O)[C@H](Cc2c[nH]cn2)NC(=O)[C@H](CC(=O)O)NC(=O)[C@H](CO)NC(=O)CNC(C)=O)CSSC[C@@H](C(=O)N[C@@H](Cc2ccc(O)cc2)C(=O)N2CCC[C@H]2C(=O)N[C@@H](Cc2ccccc2)C(=O)N[C@@H](C)C(=O)N2CCC[C@H]2C(=O)NCC(=O)NCC(=O)NCC(=O)N[C@@H](CCCCN)C(N)=O)NC1=O [P14-D] (Ac-GSDHHCYLHNGQWICYPFAPGGGK-NH2; disulfide 6-15)	did not produce significant inhibition of KDR activation	–
CC(=O)NCC(=O)N[C@@H](CC(=O)O)C(=O)N[C@@H](Cc1ccc(O)cc1)C(=O)N1CCC[C@H]1C(=O)N[C@@H](Cc1c[nH]c2ccccc12)C(=O)N[C@H]1CSSC[C@@H](C(=O)N[C@H](C(=O)N2CCC[C@H]2C(=O)N[C@@H](Cc2c[nH]c3ccccc23)C(=O)N[C@@H](CC(=O)O)C(=O)N2CCC[C@H]2C(=O)NCC(=O)NCC(=O)NCC(=O)N[C@@H](CCCCN)C(N)=O)C(C)C)NC(=O)[C@H](Cc2ccccc2)NC(=O)[C@H](CCCNC(=N)N)NC(=O)[C@H]([C@@H](C)O)NC(=O)[C@H](C(C)C)NC(=O)[C@H](CO)NC(=O)[C@H](CC(=O)O)NC(=O)[C@H](CO)NC(=O)[C@H](CC(C)C)NC(=O)[C@H](CCC(=O)O)NC(=O)[C@H](Cc2c[nH]cn2)NC1=O [P15-D] (Ac-GDYPWCHELSDSVTRFCVPWDPGGGK-NH2; disulfide 6-17)	did not produce significant inhibition of KDR activation	–
CSCC[C@H](NC(=O)[C@H](Cc1c[nH]cn1)NC(=O)[C@H](CC(=O)O)NC(=O)[C@H](CC(=O)O)NC(=O)CNC(C)=O)C(=O)N[C@H]1CSSC[C@@H](C(=O)N[C@@H](CCSC)C(=O)N[C@@H](Cc2ccc(O)cc2)C(=O)N[C@@H](Cc2c[nH]c3ccccc23)C(=O)N[C@@H](CC(=O)O)C(=O)N2CCC[C@H]2C(=O)NCC(=O)NCC(=O)NCC(=O)N[C@@H](CCCCN)C(N)=O)NC(=O)[C@H](Cc2ccccc2)NC(=O)[C@H](C(C)C)NC(=O)[C@H](Cc2c[nH]cn2)NC(=O)[C@H](CC(=O)O)NC(=O)[C@H](CCC(N)=O)NC(=O)[C@H](Cc2ccc(O)cc2)NC(=O)[C@H](CC(=O)O)NC(=O)[C@@H]2CCCN2C(=O)[C@H](CO)NC(=O)[C@H](CCCNC(=N)N)NC1=O [P16-D] (Ac-GDDHMCRSPDYQDHVFCMYWDPGGGK-NH2; disulfide 6-17)	did not produce significant inhibition of KDR activation	–
CC(=O)NCC(=O)N[C@@H](CC(=O)O)C(=O)N1CCC[C@H]1C(=O)N1CCC[C@H]1C(=O)N[C@@H](CC(C)C)C(=O)N[C@H]1CSSC[C@@H](C(=O)N[C@@H](CC(N)=O)C(=O)N2CCC[C@H]2C(=O)N[C@@H](Cc2ccccc2)C(=O)N[C@@H](CC(=O)O)C(=O)N2CCC[C@H]2C(=O)NCC(=O)NCC(=O)NCC(=O)N[C@@H](CCCCN)C(N)=O)NC(=O)[C@H](Cc2c[nH]cn2)NC(=O)[C@H](Cc2c[nH]cn2)NC(=O)[C@H](Cc2c[nH]c3ccccc23)NC(=O)[C@H](CCC(=O)O)NC(=O)[C@H](CCC(N)=O)NC(=O)[C@H]([C@@H](C)O)NC(=O)CNC(=O)[C@H](C(C)C)NC(=O)[C@H](Cc2ccccc2)NC(=O)[C@H](Cc2ccc(O)cc2)NC1=O [P17-D] (Ac-GDPPLCYFVGTQEWHHCNPFDPGGGK-NH2; disulfide 6-17)	did not produce significant inhibition of KDR activation	–
CSCC[C@@H]1NC(=O)[C@H](CCC(=O)O)NC(=O)[C@@H](NC(=O)[C@H](Cc2c[nH]c3ccccc23)NC(=O)[C@H](CO)NC(=O)CNC(=O)[C@H](CC(=O)O)NC(=O)CNC(C)=O)CSSC[C@@H](C(=O)N[C@@H](Cc2ccccc2)C(=O)N[C@@H](CO)C(=O)N[C@@H](CC(=O)O)C(=O)N[C@@H](CC(=O)O)C(=O)N2CCC[C@H]2C(=O)NCC(=O)NCC(=O)NCC(=O)N[C@@H](CCCCN)C(N)=O)NC(=O)[C@H](CC(N)=O)NC(=O)[C@H](Cc2c[nH]c3ccccc23)NC(=O)[C@H](CCCCNC(CC(C)C)=C2C(=O)CC(C)(C)CC2=O)NC(=O)CNC(=O)[C@H](C(C)C)NC(=O)[C@H](CC(=O)O)NC(=O)[C@H](CCC(N)=O)NC(=O)[C@H](CCCNC(=N)N)NC1=O [P18-E] (Ac-GDGSWCEMRQDVG[Lys(ivDde)]WNCFSDDPGGGK-NH2; disulfide 6-17)	did not produce significant inhibition of KDR activation	–
